Assay: xn = mol fraction of the nth substance listed
Details: 101 kPa, Liquid; for speed of sound: Sing-around technique in a fixed-path interferometer; for mass density: Vibrating tube method; for viscosity: Capillary tube (Ostwald / Ubbelohde) method

CCCCOCCO [2-butoxyethan-1-ol] + CC(C)O
Details	mass density [kg/m3]	speed of sound [m/s]	viscosity [mPa·s]
293.15 K, x1 = 0.0539	796.164	1178.8	–
293.15 K, x1 = 0.1088	805.962	1190.2	–
293.15 K, x1 = 0.1607	814.567	1200.9	–
293.15 K, x1 = 0.2041	821.305	1210	–
293.15 K, x1 = 0.2567	828.971	1220.4	–
293.15 K, x1 = 0.3095	836.163	1230.7	–
293.15 K, x1 = 0.4041	847.973	1247.7	–
293.15 K, x1 = 0.5041	859.135	1263.9	–
293.15 K, x1 = 0.6113	869.832	1279.6	–
293.15 K, x1 = 0.7078	878.523	1292.2	–
293.15 K, x1 = 0.8095	886.841	1304	–
293.15 K, x1 = 0.857	890.465	1309.2	–
293.15 K, x1 = 0.9069	894.11	1314.2	–
293.15 K, x1 = 0.9527	897.317	1318.8	–
298.15 K, x1 = 0.0539	791.98	1160.9	–
298.15 K, x1 = 0.054	–	–	2.105
298.15 K, x1 = 0.1088	801.77	1172.5	2.114
298.15 K, x1 = 0.1607	810.37	1183.5	2.132
298.15 K, x1 = 0.2041	817.11	1192.6	2.145
298.15 K, x1 = 0.2567	824.79	1203	2.166
298.15 K, x1 = 0.3095	831.99	1213.2	2.184
298.15 K, x1 = 0.4041	843.83	1230.4	2.247
298.15 K, x1 = 0.5041	855	1246.6	2.327
298.15 K, x1 = 0.6113	865.69	1262.2	2.427
298.15 K, x1 = 0.7078	874.37	1274.7	–
298.15 K, x1 = 0.7079	–	–	2.538
298.15 K, x1 = 0.8095	882.67	1286.7	2.648
298.15 K, x1 = 0.857	886.29	1291.8	2.714
298.15 K, x1 = 0.9069	889.93	1296.8	2.778
298.15 K, x1 = 0.9527	893.12	1301.5	2.838
303.15 K, x1 = 0.0539	787.87	1143.4	–
303.15 K, x1 = 0.054	–	–	1.803
303.15 K, x1 = 0.1088	797.64	1155.2	1.819
303.15 K, x1 = 0.1607	806.24	1166.2	1.847
303.15 K, x1 = 0.2041	812.99	1175.3	1.866
303.15 K, x1 = 0.2567	820.65	1185.7	1.889
303.15 K, x1 = 0.3095	827.86	1195.9	1.923
303.15 K, x1 = 0.4041	839.68	1213	1.988
303.15 K, x1 = 0.5041	850.85	1229.2	2.079
303.15 K, x1 = 0.6113	861.54	1244.9	2.194
303.15 K, x1 = 0.7078	870.2	1257.7	–
303.15 K, x1 = 0.7079	–	–	2.308
303.15 K, x1 = 0.8095	878.49	1269.7	2.427
303.15 K, x1 = 0.857	882.1	1274.8	2.487
303.15 K, x1 = 0.9069	885.74	1280	2.549
303.15 K, x1 = 0.9527	888.94	1284.7	2.604
308.15 K, x1 = 0.0539	783.58	1125.5	–
308.15 K, x1 = 0.054	–	–	1.576
308.15 K, x1 = 0.1088	793.36	1137.7	1.587
308.15 K, x1 = 0.1607	801.96	1148.9	1.606
308.15 K, x1 = 0.2041	808.71	1157.9	1.624
308.15 K, x1 = 0.2567	816.4	1168.5	1.654
308.15 K, x1 = 0.3095	823.61	1178.8	1.678
308.15 K, x1 = 0.4041	835.44	1195.9	1.734
308.15 K, x1 = 0.5041	846.62	1212.1	1.809
308.15 K, x1 = 0.6113	857.32	1228	1.886
308.15 K, x1 = 0.7078	865.98	1240.6	–
308.15 K, x1 = 0.7079	–	–	1.968
308.15 K, x1 = 0.8095	874.28	1252.6	2.056
308.15 K, x1 = 0.857	877.88	1257.8	2.101
308.15 K, x1 = 0.9069	881.52	1263	2.145
308.15 K, x1 = 0.9527	884.72	1267.7	2.188
313.15 K, x1 = 0.0539	778.94	1108	–
313.15 K, x1 = 0.1088	788.77	1120.2	–
313.15 K, x1 = 0.1607	797.4	1131.4	–
313.15 K, x1 = 0.2041	804.16	1140.5	–
313.15 K, x1 = 0.2567	811.87	1151.3	–
313.15 K, x1 = 0.3095	819.11	1161.5	–
313.15 K, x1 = 0.4041	830.99	1178.7	–
313.15 K, x1 = 0.5041	842.22	1195.1	–
313.15 K, x1 = 0.6113	852.97	1211.1	–
313.15 K, x1 = 0.7078	861.66	1223.7	–
313.15 K, x1 = 0.8095	870.01	1235.8	–
313.15 K, x1 = 0.857	873.63	1241	–
313.15 K, x1 = 0.9069	877.27	1246.2	–
313.15 K, x1 = 0.9527	880.47	1250.8	–

CCCCOCCO [2-butoxyethan-1-ol] + CCC(C)O
Details	mass density [kg/m3]	speed of sound [m/s]	viscosity [mPa·s]
293.15 K, x1 = 0.0517	813.24	1236.5	–
293.15 K, x1 = 0.1011	819.25	1242	–
293.15 K, x1 = 0.152	825.25	1247.7	–
293.15 K, x1 = 0.2027	831.03	1253.1	–
293.15 K, x1 = 0.2541	836.67	1258.4	–
293.15 K, x1 = 0.3092	842.49	1264	–
293.15 K, x1 = 0.4012	851.78	1272.9	–
293.15 K, x1 = 0.5011	861.21	1282.2	–
293.15 K, x1 = 0.6065	870.53	1291.4	–
293.15 K, x1 = 0.7054	878.73	1299.8	–
293.15 K, x1 = 0.806	886.59	1307.9	–
293.15 K, x1 = 0.8558	890.31	1311.8	–
293.15 K, x1 = 0.8999	893.54	1315.3	–
293.15 K, x1 = 0.9516	897.19	1319.3	–
298.15 K, x1 = 0.0517	809.099	1218.9	2.932
298.15 K, x1 = 0.1011	815.491	1224.3	2.809
298.15 K, x1 = 0.152	821.091	1229.9	2.713
298.15 K, x1 = 0.2027	826.863	1235.3	2.66
298.15 K, x1 = 0.2541	832.498	1240.7	2.607
298.15 K, x1 = 0.3092	838.314	1246.4	2.586
298.15 K, x1 = 0.4012	847.585	1255.4	2.563
298.15 K, x1 = 0.5011	857.012	1264.8	2.583
298.15 K, x1 = 0.6065	866.34	1274.2	–
298.15 K, x1 = 0.6066	–	–	2.598
298.15 K, x1 = 0.7054	874.537	1282.5	2.653
298.15 K, x1 = 0.806	882.398	1290.7	2.711
298.15 K, x1 = 0.8558	886.109	1294.6	2.747
298.15 K, x1 = 0.8999	889.334	1298.1	2.796
298.15 K, x1 = 0.9516	892.99	1302.2	2.824
303.15 K, x1 = 0.0517	804.88	1202	2.441
303.15 K, x1 = 0.1011	810.88	1207	2.357
303.15 K, x1 = 0.152	816.86	1212.3	2.319
303.15 K, x1 = 0.2027	822.62	1217.7	2.283
303.15 K, x1 = 0.2541	828.26	1223	2.249
303.15 K, x1 = 0.3092	834.08	1228.6	2.22
303.15 K, x1 = 0.4012	843.34	1237.7	2.224
303.15 K, x1 = 0.5011	852.78	1247.4	2.283
303.15 K, x1 = 0.6065	862.11	1257.1	–
303.15 K, x1 = 0.6066	–	–	2.342
303.15 K, x1 = 0.7054	870.3	1265.5	2.419
303.15 K, x1 = 0.806	878.16	1273.8	2.488
303.15 K, x1 = 0.8558	881.88	1277.7	2.53
303.15 K, x1 = 0.8999	885.1	1281.2	2.562
303.15 K, x1 = 0.9516	888.76	1285.1	2.606
308.15 K, x1 = 0.0517	800.58	1183	2.081
308.15 K, x1 = 0.1011	806.58	1188.7	2.031
308.15 K, x1 = 0.152	812.55	1194.5	1.994
308.15 K, x1 = 0.2027	818.33	1200	1.97
308.15 K, x1 = 0.2541	823.96	1205.6	1.944
308.15 K, x1 = 0.3092	829.79	1211.4	1.935
308.15 K, x1 = 0.4012	839.07	1220.6	1.935
308.15 K, x1 = 0.5011	848.49	1230.3	1.964
308.15 K, x1 = 0.6065	857.81	1240	–
308.15 K, x1 = 0.6066	–	–	1.998
308.15 K, x1 = 0.7054	866.02	1248.6	2.064
308.15 K, x1 = 0.806	873.9	1256.7	2.112
308.15 K, x1 = 0.8558	877.63	1260.8	2.144
308.15 K, x1 = 0.8999	880.86	1264.2	2.172
308.15 K, x1 = 0.9516	884.53	1268.2	2.196
313.15 K, x1 = 0.0517	796.19	1164.9	–
313.15 K, x1 = 0.1011	802.19	1170.6	–
313.15 K, x1 = 0.152	808.15	1176.6	–
313.15 K, x1 = 0.2027	813.93	1182.3	–
313.15 K, x1 = 0.2541	819.59	1188	–
313.15 K, x1 = 0.3092	825.43	1193.9	–
313.15 K, x1 = 0.4012	834.71	1203.5	–
313.15 K, x1 = 0.5011	844.14	1213.3	–
313.15 K, x1 = 0.6065	853.46	1223.1	–
313.15 K, x1 = 0.7054	861.68	1231.8	–
313.15 K, x1 = 0.806	869.59	1240.2	–
313.15 K, x1 = 0.8558	873.33	1244.1	–
313.15 K, x1 = 0.8999	876.56	1247.6	–
313.15 K, x1 = 0.9516	880.24	1251.6	–
